According to US20120065187A1 (ALCON RESEARCH, LTD, priority 2008, published 2012):
pEC50: −log10 of the molar value.

Columns and labels:
[1] = target: T1, human H4 (Homo sapiens, UniProt Q9H3N8); assay: In vitro histamine receptor cell-based assay (aequorin bioluminescence), H4 antagonism; conditions: CHO-K1 cells expressing human H4, aequorin and Gα16; histamine at EC80; read-out: H4 Antagonist EC50
T1 construct: host or cells: CHO-K1
Method in brief: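 CHO-K1 cells stably expressing human H4, Gα16 and mitochondrial aequorin, loaded with 5 μM coelenterazine-h, preincubated 15 min at room temperature with compound, then challenged with histamine at EC80.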

[2] = target: T2, human H1 (Homo sapiens, UniProt P35367); assay: In vitro histamine receptor cell-based assay (aequorin bioluminescence), H1 antagonism; conditions: CHO-K1 cells expressing human H1 and aequorin; histamine at EC80; read-out: H1 Antagonist EC50
T2 construct: host or cells: CHO-K1
Method in brief: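 Stable CHO-K1 lines expressing human H1 or H4 (H4 with Gα16) plus mitochondrial aequorin, loaded 4 h with 5 μM coelenterazine-h at ~21 °C. Compounds preincubated 15 min, then histamine at EC80 added; bioluminescence decrease (AUC or max–min) expressed as % of positive control (diphenhydramine for H1, JNJ7777120 for H4, 10 μM).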

[3] = test system: Hartley VAF outbred guinea pigs; assay: Allergic conjunctivitis in passively sensitized guinea pigs (conjunctival EPO activity); type: in vivo; parameters: key: +: a ≦0.1% qd dose was statistically equivalent to dexamethasone with respect to reduction of EPO activity; −: the compound was statistically inferior to dexamethasone and not different than vehicle; conditions: ≦0.1% qd topical, 1 hour prior to ovalbumin challenge; reduction of conjunctival EPO activity vs dexamethasone
Protocol: Male Hartley VAF outbred guinea pigs were passively sensitized to ovalbumin by a single OD subconjunctival injection of undiluted guinea pig anti-ovalbumin antiserum 24 hours before OD topical challenge with 500 μg ovalbumin in saline. Control animals were injected with saline only and challenged with ovalbumin. To determine acute phase drug efficacy, 30 min after challenge animals were clinically scored by a masked observer for severity of signs of conjunctivitis based on a standard scale. Test compounds were administered topically 1 hour prior to challenge (QD protocol), or 1 hour prior to challenge and again 8 hours after challenge (BID protocol). Twenty-four hours after challenge, animals were euthanized and conjunctivae were harvested for determination of tissue eosinophil peroxidase (EPO) concentration as a marker of allergic inflammation. Homogenates of freshly collected tissues were prepared by shaking the tissues in 2 mL round-bottom tubes containing 0.5 mL of homogenization buffer (50 mM Tris HCl, pH 8.0, 6 mM KBr) and one 5-mm stainless steel bead on a Qiagen TissueLyser at 30 Hz for 5 min. Homogenates were frozen and thawed once, then centrifuged at 10,000 rpm for 5 min. EPO activity in supernatants was measured by reacting diluted homogenates with a solution of 6 mM o-phenylenediamine substrate and 8.8 mM H2O2 in homogenization buffer for 3 min. The reaction was stopped with 4M H2SO4 and absorbances were measured at […] on a spectrophotometric plate reader. Total EPO in samples was calculated from a standard curve of recombinant human EPO in each assay. EPO activity was normalized to total protein concentration (Pierce BCA assay) in supernatants. Background EPO activity was determined from the unsensitized, antigen-challenged control group. Percent inhibition was calculated from the sensitized, antigen-challenged, vehicle-treated control group in each experiment. Ovalbumin-injected animals dosed topically with 0.1% w/v dexamethasone (dex) served as positive control. Groups were compared by ANOVA with Dunnett's or Tukey's post-hoc tests where appropriate with significance assigned at the 95% confidence level.
The table below summarizes the results.

[4] = test system: Hartley VAF outbred guinea pigs; assay: as above; type: in vivo; parameters: key: +: a 0.01% bid dose was statistically equivalent to dexamethasone with respect to reduction of EPO activity; −: the compound was statistically inferior to dexamethasone and not different than vehicle; conditions: 0.01% bid topical, 1 hour prior to and 8 hours after ovalbumin challenge; reduction of conjunctival EPO activity vs dexamethasone

T2 sequence (P35367 whole entry): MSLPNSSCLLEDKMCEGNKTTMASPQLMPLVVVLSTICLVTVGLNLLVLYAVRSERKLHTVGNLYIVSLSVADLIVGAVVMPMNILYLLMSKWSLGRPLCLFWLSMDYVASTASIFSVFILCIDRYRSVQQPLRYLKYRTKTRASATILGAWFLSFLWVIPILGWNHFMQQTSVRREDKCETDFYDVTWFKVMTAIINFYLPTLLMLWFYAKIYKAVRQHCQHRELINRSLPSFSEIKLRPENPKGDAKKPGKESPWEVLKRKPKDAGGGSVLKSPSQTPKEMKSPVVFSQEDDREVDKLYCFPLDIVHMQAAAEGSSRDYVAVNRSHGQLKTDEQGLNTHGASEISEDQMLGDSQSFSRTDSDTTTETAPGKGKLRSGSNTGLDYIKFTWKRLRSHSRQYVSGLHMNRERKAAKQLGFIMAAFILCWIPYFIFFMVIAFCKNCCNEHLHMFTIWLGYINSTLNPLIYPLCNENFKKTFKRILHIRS

pEC50 [1]	pEC50 [2]	SMILES	QD activity [3]	BID activity [4]
> 5.00	< 5.00	CN1CCN(c2nc3ccc(Cl)cc3n3cnnc23)CC1 [Example 55, 8-chloro-4-(4-methylpiperazin-1-yl)-[1,2,4]triazolo[4,3-a]quinoxaline]	+	+
> 5.00	< 5.00	Clc1ccc2nc(N3CCNCC3)c3nncn3c2c1 [Example 57, 8-chloro-4-(piperazin-1-yl)-[1,2,4]triazolo[4,3-a]quinoxaline]	+	+
